Residues, ends and D or L forms follow the SMILES beside them.
Tests used:
[1] = target: Thimet oligopeptidase EC 3.4.24.15 (UniProt P24155); experiment: enzyme inhibition of Thimet oligopeptidase EC 3.4.24.15 (published methods, Dauch 1991a,b); format: biochemical
Neurolysine EC 3.4.24.16 = Neurolysine EC 3.4.24.16 (UniProt P42676); format: biochemical
[2] = determination of chemical stability, storage in glass vials, LC-MS; format: physicochemical; conditions: for relative stability: stored in glass vials, LC-MS; for stability on storage (in words): over 10 days (240 hr)
Method: Compound 36 and its phosphinamide analog phosphodiepril (FR 2 654 430, synthesized as disclosed therein) were stored separately in glass vials. At different time intervals samples were taken and analyzed by LC-MS. Samples were dissolved in DMSO (0.1 mg/ml) and diluted by a factor 100 in the first LC eluent (A). At fixed time points an amount of 100 μl was taken from the formulations. These time points were 0, 3, 72, and 240 hours. All samples were measured in the positive mode, with an ESI source on the LC-MS.
Eluents were composed of water (H2O), acetonitril (ACN), methanol (MeOH) and ammonium-acetate (NH4Ac). The eluent is mixed out of two different bottles with two different compositions. • Eluent A consists of H2O/ACN/MeOH 800/100/100+0.77 g/l NH4Ac. • Eluent B consists of H2O/ACN/MeOH 100/800/100+0.77 g/l NH4Ac.
The gradient in the pump was set to:
Columns: Chromsep Guard Column SS 10×2 mm (CP28141) and Inertsil 5 ODS-3 100×3.0 mm (CP22234). Column temperature: 25° C.
Injection: well plate temperature: 25° C. • Injection volume: 20 μl • Splitter (post column): 1:4 • Run time: 9.50 minutes.
Detection MS-MS:ESI (pos/neg) spray 3.0 kV • Fragmentor 70 • Gain 2.0 • Dwell 700 msec • Nebulizer pressure 42 psig • Drying gas temperature 325° C. • Capillary temperature 325° C.
Compound 36 and its phosphinamide analog phosphodiepril (FR 2 654 430, synthesized as disclosed therein) were stored separately in glass vials. At different time intervals samples were taken and analyzed by LC-MS.
When calculating the relative stability it was assumed that the compounds were completely dissolved during formulation. Therefore, the relative stability is 100% at the beginning (0 hour measurement). The following time measurements are recalculated from that measurement.

[3] = tested on: Corynebacterium rathayii collagenase; conditions: cited from earlier work
endopeptidase 24.16 = endopeptidase 24.16 (Rattus norvegicus, UniProt P42676); conditions: cited from earlier work
endopeptidase 24.15 = endopeptidase 24.15 (Rattus norvegicus, UniProt P24155); conditions: at concentrations as high as 5 mM; cited from earlier work
[4] = in vivo experiments with phosphodiepril
Description: Thus, even in its pure form, the N-analog is not stable. Due to the rapid hydrolysis of the phosphonamide bond, enzyme inhibition activity of this compound can only be determined with difficulty.

[5] = Time 0 hr (set to 100% at the beginning)
[6] = Time 240 hr, relative to 0 hour

endopeptidase 24.16, sequence (P42676 38-704): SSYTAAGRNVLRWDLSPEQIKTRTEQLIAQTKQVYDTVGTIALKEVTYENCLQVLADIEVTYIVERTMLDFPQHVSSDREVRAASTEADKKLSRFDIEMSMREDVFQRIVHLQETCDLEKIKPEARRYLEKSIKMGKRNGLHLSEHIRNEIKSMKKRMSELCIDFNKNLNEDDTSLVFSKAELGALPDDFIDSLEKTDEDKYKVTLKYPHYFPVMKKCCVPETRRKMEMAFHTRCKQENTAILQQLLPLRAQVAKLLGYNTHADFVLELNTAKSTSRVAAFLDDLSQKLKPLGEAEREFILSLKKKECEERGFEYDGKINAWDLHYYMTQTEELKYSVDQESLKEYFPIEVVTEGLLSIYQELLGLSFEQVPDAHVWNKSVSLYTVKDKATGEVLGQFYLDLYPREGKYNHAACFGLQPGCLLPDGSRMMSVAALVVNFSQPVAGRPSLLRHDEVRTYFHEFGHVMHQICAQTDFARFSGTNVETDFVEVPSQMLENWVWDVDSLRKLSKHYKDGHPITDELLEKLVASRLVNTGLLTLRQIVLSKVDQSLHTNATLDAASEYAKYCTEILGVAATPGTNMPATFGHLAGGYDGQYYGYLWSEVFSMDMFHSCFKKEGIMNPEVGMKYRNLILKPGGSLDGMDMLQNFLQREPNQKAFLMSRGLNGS
endopeptidase 24.15, sequence (P24155 whole entry): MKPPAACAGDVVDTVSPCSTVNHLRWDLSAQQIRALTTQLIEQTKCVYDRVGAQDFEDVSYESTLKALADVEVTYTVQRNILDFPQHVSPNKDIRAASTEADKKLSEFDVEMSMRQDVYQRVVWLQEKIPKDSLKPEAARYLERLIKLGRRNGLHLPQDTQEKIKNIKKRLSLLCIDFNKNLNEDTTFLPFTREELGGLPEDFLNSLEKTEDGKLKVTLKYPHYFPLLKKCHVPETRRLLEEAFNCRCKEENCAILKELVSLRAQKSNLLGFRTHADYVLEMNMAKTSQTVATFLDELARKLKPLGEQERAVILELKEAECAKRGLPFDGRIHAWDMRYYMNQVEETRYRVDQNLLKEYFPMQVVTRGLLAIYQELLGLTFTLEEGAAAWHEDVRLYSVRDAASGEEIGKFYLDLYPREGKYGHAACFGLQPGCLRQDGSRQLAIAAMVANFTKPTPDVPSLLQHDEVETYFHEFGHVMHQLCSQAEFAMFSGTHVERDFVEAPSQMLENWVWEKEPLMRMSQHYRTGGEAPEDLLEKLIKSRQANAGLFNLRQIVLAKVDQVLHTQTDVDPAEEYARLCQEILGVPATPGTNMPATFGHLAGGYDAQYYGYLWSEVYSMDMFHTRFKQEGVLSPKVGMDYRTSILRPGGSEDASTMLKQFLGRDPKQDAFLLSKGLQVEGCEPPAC

SMILES | enzyme inhibition EC 3.4.24.15 pIC50 [1] | enzyme inhibition EC 3.4.24.16 pIC50 (Neurolysine EC 3.4.24.16) | other results
CCCCC(NC(=O)C(NC(=O)CCP(=O)(O)CCCCc1ccccc1)C(C)C)C(=O)O (stereo not drawn) [Compound 6] | 6.8 | 6.7 | 
CC(C)C(NC(=O)CCP(=O)(O)CCCCc1ccccc1)C(=O)NC(Cc1ccccc1)C(=O)O (stereo not drawn) [Compound 7] | 6.2 | 6.1 | 
CCC(C)C(NC(=O)CCP(=O)(O)CCCCc1ccccc1)C(=O)NC(C(=O)O)C(C)C (stereo not drawn) [Compound 8] | 5.8 | 5.4 | 
CCC(C)C(NC(=O)CCP(=O)(O)CCCCc1ccccc1)C(=O)NC(CC(C)C)C(=O)O (stereo not drawn) [Compound 9] | 6.3 | 5.6 | 
CCCCC(NC(=O)C(C)N(C)C(=O)CCP(=O)(O)CCCCc1ccccc1)C(=O)O (stereo not drawn) [Compound 11] | 6.2 | 6.1 | 
CCC(NC(=O)C(Cc1ccccc1)NC(=O)CCP(=O)(O)Cc1ccc2ccccc2c1)C(=O)O (stereo not drawn) [Compound 25] | 5.7 | 5.9 | 
CCCCC(NC(=O)C(NC(=O)CCP(=O)(O)CCc1cccc2ccccc12)C(C)C)C(=O)O (stereo not drawn) [Compound 26] | 6.5 | 6.3 | 
CC(C)C(NC(=O)CCP(=O)(O)CCc1cccc2ccccc12)C(=O)NC(Cc1ccccc1)C(=O)O (stereo not drawn) [Compound 27] | 6.2 | 6.1 | 
CCC(C)C(NC(=O)CCP(=O)(O)CCc1cccc2ccccc12)C(=O)NC(C(=O)O)C(C)C (stereo not drawn) [Compound 28] | 6.3 | 5.8 | 
CCC(C)C(NC(=O)CCP(=O)(O)CCc1ccc2ccccc2c1)C(=O)NC(CC(C)C)C(=O)O (stereo not drawn) [Compound 29] | 7.0 | 6.6 | 
CCC(C)C(NC(=O)CCP(=O)(O)CCc1cccc2ccccc12)C(=O)NC(CC(C)C)C(=O)O (stereo not drawn) [Compound 30] | 5.8 | 5.2 | 
CCCCC(NC(=O)C(C)N(C)C(=O)CCP(=O)(O)CCc1ccc2ccccc2c1)C(=O)O (stereo not drawn) [Compound 32] | 7.0 |  | 
CCCC[C@H](NC(=O)[C@@H]1CCCN1C(=O)CCP(=O)(O)CCc1ccc2ccccc2c1)C(=O)O [Compound 36] | 8.9 | >7.5 | relative stability [2, 5]: 100%; relative stability ([2]; Time 3 hr, relative to 0 hour): 101%; relative stability ([2]; Time 72 hr, relative to 0 hour): 103%; relative stability [2, 6]: 100%; stability on storage (in words) [2]: remained stable
CCCC[C@H](NC(=O)[C@@H]1CCCN1C(=O)CCP(=O)(O)CCc1ccccc1)C(=O)O [N-[1-[3-[hydroxyl-(2-phenyl-ethyl)phosphinyl]1-oxopropyl]-L-prolyl]-L-norleucine] |  |  | inhibition of Corynebacterium rathayii collagenase [3]: potent inhibitor
CC[C@H](C)[C@H](NC(=O)[C@@H]1CCCN1)C(=O)O [Pro-IIe] (H-Pro-Ile-OH) |  |  | Ki (endopeptidase 24.16): 90 µM; inhibition of endopeptidase 24.15 (endopeptidase 24.15): does not inhibit
CCCC[C@H](NC(=O)[C@@H]1CCCN1C(=O)CNP(=O)(O)CCc1ccc2ccccc2c1)C(=O)O [phosphodiepril, reference compound] |  |  | relative stability [2, 5]: 100%; relative stability ([2]; Time 3 hr, relative to 0 hour): 92%; relative stability ([2]; Time 72 hr, relative to 0 hour): 87%; relative stability [2, 6]: 82%; stability on storage (in words) [2]: gradually degraded; outcome of in vivo experiments [4]: negative results

Source: US20080146524A1, “Selective inhibitors of neurotensin degrading enzymes” (Solvay Pharmaceuticals B.V., priority 2006, published 2008)
